According to US8580814B2, “Methods of using (+)-1,4-dihydro-7-[(3S,4S)-3-methoxy-4-(methylamino)-1-pyrrolidinyl]-4- oxo-1-(2-thiazolyl)-1,8-naphthyridine-3-carboxylic acid for treatment of cancer” (priority 2006, dated 2013):
≈ marks a conversion by molar mass, not a printed value. Marks after values point to notes of the source that are not given here. One block for each molecule: values may come before it.

Columns and labels:
[1] = tested on: HCT-116 cells with 6 fold lower ATR levels; experiment: MTT assay, sensitization (ATRFLOX); format: cell-based; details: compound 72 hours
Protocol: (§1) Cells were then incubated with 5% MTT for 1-2 hours and lysed. MTT was colorimetrically read at 570 nm and EC50's were determined using linear regression analysis.
(§2) Sensitization was carried out with various chemical treatments.

[2] = tested on: MO59J (DNAPKcs(−/−)) vs MO59K (DNAPKCs(+/+)); experiment: MTT assay, sensitization (DNAPKcs(−/−)); format: cell-based; details: MO59J (DNAPKcs(−/−)) vs MO59K (DNAPKCs(+/+)); compound 72 hours
Protocol: as §1, §2

[3] = tested on: HCT-116 cells treated with 2 mM caffeine; experiment: MTT assay, sensitization (caffeine); format: cell-based; details: 2 mM caffeine pre-treated for 16 hours, compound 72 hours
Protocol: as §1, §2

[4] = tested on: CCRF-CEM (lymphoblastic leukemia); experiment: MTT cell viability assay, leukemia cells; format: cell-based; details: Homo sapiens, MTT after 72 hours
Protocol: (§3) The following cell lines were used in this assay: HL-60 (promyelocytic leukemia); Jurkat (T cell leukemia); CCRF-CEM (lymphoblastic leukemia); CEM/C2 (camptothecan resistant derivative of CCRF-CEM). Cells were seeded in 96 wells plates at 3000 cells per well and incubated for 16 hours. […] Titrations were diluted 1:100 in media to achieve final compound concentrations. The 96 well plates were aspirated and compound dilutions in media were added ([…]). MTT analysis was carried out after 72 hours of incubation at 37° C. Briefly, […] of MTT solution was added to each well. Cells were incubated at 37° C. for 1-2 hours. […] Plates were read on a spectromax machine with an absorbance measurement at […]. IC50's were calculated (data provided in Table 13) using regression analysis within GraphPad Prism.

[5] = tested on: CEM/C2 (camptothecan resistant derivative of CCRF-CEM); experiment: MTT cell viability assay, leukemia cells; format: cell-based; details: Homo sapiens; CEM/C2, MTT after 72 hours
Protocol: as §3

[6] = tested on: HL-60 (promyelocytic leukemia); experiment: MTT cell viability assay, leukemia cells; format: cell-based; details: Homo sapiens; HL-60, MTT after 72 hours
Protocol: as §3

[7] = tested on: CCRF-CEM acute lymphoblastic leukemia tumor; experiment: CCRF-CEM xenograft model; format: in vivo, nude mice
Protocol: CCRF-CEM acute lymphoblastic leukemia tumor lobes of 2-3 mm square were transplanted subcutaneously into nude mice. Tumors were allowed to grow to approximately 8-20 mm in diameter. […] Acceptable toxicity was defined as a mean group weight loss of 30% or less and not more than one toxic death among 6 treated animals. Anti-tumor activities of the drugs were assessed 20 or 21 days after the start of administration. Table 14 provides data for tumor inhibition (TI) and survival rate in the CCRF-CEM and LM3-Jck xenograft models.

[8] = tested on: LM3-Jck human malignant lymphoma tumor; experiment: LM3-Jck xenograft model; format: in vivo, nude mice
Protocol: LM3-Jck human malignant lymphoma tumor lobes (2-3 mm square) were transplanted subcutaneously into nude mice. Tumors were allowed to grow to approximately 7-14 mm in diameter. […] Acceptable toxicity was defined as a mean group weight loss of 30% or less and not more than one toxic death among 6 treated animals. Anti-tumor activities of the drugs were assessed 21 days after the start of administration.

SMILES: CC[C@@]1(O)C(=O)OCc2c1cc1n(c2=O)Cc2cc3ccccc3nc2-1 [Camptothecin, reference compound]
Sensitization, fold decrease in the EC50 for cytotoxicity (MTT): ATRFLOX [1]: 5 fold | Sensitization, fold decrease in the EC50 for cytotoxicity (MTT): DNAPKcs(−/−) [2]: 0.7 fold | Sensitization, fold decrease in the EC50 for cytotoxicity (MTT): Caffeine [3]: 6 fold

IC50 [4]: 0.003 µg/mL (≈ 0.00552 µM) | IC50 [5]: 0.017 µg/mL (≈ 0.0313 µM) | IC50 [6]: 0.024 µg/mL (≈ 0.0442 µM)
SMILES: COc1cccc2c1C(=O)c1c(O)c3c(c(O)c1C2=O)C[C@@](O)(C(=O)CO)C[C@@H]3O[C@H]1C[C@H](N)[C@H](O)[C@H](C)O1 [Doxorubicin, doxorubicin, reference compound]
IR (%) (tumor inhibition rate) ([7]; q7d X3, IV, 12 mg/kg): 50.3* % | IR (%) (tumor inhibition rate) ([8]; LM3-JcK, q7d X3, IV, 12 mg/kg): 57.2* % | Survival Ratio ([8]; nude, mouse, in vivo, iv, 12 mg/kg, 21 days): 6/6

SMILES: COc1cc([C@@H]2c3cc4c(cc3[C@@H](O[C@@H]3O[C@@H]5CO[C@@H](C)O[C@H]5[C@H](O)[C@H]3O)[C@H]3COC(=O)[C@H]23)OCO4)cc(OC)c1O [Etoposide, etoposide, reference compound]
IR (%) (tumor inhibition rate) ([7]; qd X 5, IV, 12 mg/kg): 28.3% | IR (%) (tumor inhibition rate) ([8]; LM3-JcK, qd X 5, IV, 12 mg/kg): 3.0%

SMILES: CCc1c2c(nc3ccc(OC(=O)N4CCC(N5CCCCC5)CC4)cc13)-c1cc3c(c(=O)n1C2)COC(=O)[C@]3(O)CC [Irinotecan, irinotecan, reference compound]
IR (%) (tumor inhibition rate) ([7]; q4d x3, IV, 100 mg/kg): 99.7* % | Survival Ratio ([7]; q4d x3, IV, 100 mg/kg): 5/6 | IR (%) (tumor inhibition rate) ([8]; LM3-JcK, q4d x3, IV, 100 mg/kg): 97.7* % | Survival Ratio ([8]; LM3-JcK, q4d x3, IV, 100 mg/kg): 6/6
